Assay results: US5994365A, “Substituted diazaanthracene compounds having pharmaceutical utility” (Diazans Limited, priority 1998, dated 1999)

Assays:
Staphylococcus species = experiment: Effect of age of the dimer solution on MIC (stability of the solution); format: physicochemical; conditions: stored at RT in foil wrapped tube
From the text: The dimer solution was two weeks old at this time. When the additional Staph strains were then retested using a freshly made solution of the dimer, the MICs were lower (see Table E). The stability of the solution stored at RT in a foil wrapped tube could be a variable contributing to the discrepancy between MICs.

β strep grp A = experiment: Broth microdilution (NCCLS guidelines), MIC; format: cell-based; conditions: Table A
Description: (§1) The dimer product of Example 15 was obtained in powder form. A stock solution of 1280 mg/L of the dimer in dimethylsulfoxide (DMSO) was prepared and stored at room temperature in a foil-wrapped screw-capped tube (10 ml). Subsequent dilutions were prepared using cation-adjusted Mueller-Hinton broth (50 mg/L Mg). […] It was resuspended upon mixing each time an aliquot was taken from the solution.
(§2) Approximately 100 varied bacterial isolates were initially collected for screening, along with 9 ATCC organisms. Forty additional strains of Staphylococcus species were subsequently screened. All isolates were identified according to generally accepted lab protocol.
(§3) Broth microdilution was performed according to NCCLS guidelines. Microdilution panels were prepared using doubling dilutions of the dimer in ~250 μl plastic, 96-well trays. Inoculum suspension equal to a 0.5 McFarland standard were further diluted and added to the microdilution trays to achieve a final inoculum of 5×10^5 CFU/ml (5×10^4 CFU/well). Colony counts were performed to confirm the final inoculum, as well as its purity. Each strain was also tested in a growth control well containing only MHB for viability.
(§4) Microdilution trays were incubated at 35° C. in ambient air or 5% CO2 as appropriate for 16-20 hours. After incubation, the minimal inhibitory concentration (MIC) was defined as the lowest concentration of the dimer with no evidence of growth. Since 10 or more strains of most organisms were tested; a range of MICs was determined for each organism, as well as the concentration of the dimer that inhibited 50% of the strains (MIC50) and the concentration of the dimer that inhibited 90% of the strains (MIC90).
(§5) **5% lysed horse blood in MHB (cation supplemented)

Strep pneumoniae = experiment: Broth microdilution (NCCLS guidelines), MIC; format: cell-based; conditions: Table A
Description: as §1, §2, §3, §4, §5

[1] = test system: Coagulase negative Staph (Staneg); experiment: Broth microdilution (NCCLS guidelines), MIC; format: cell-based, Coagulase negative staphylococci; conditions: for MIC50 / MIC90 / Range of MICs: 10 strains
Description: as §1, §2, §3, §4

S. aureus = experiment: Minimal bactericidal concentration (MBC), 99.9% kill; format: cell-based, Staphylococcus aureus
Description: as §3
(§6) Various isolates were also tested for minimal bactericidal concentration (MBC) (see Tables D and F).
Subbed clear wells (50 μl) Inoculum 5 × 10^4 /well
99.9% kill = 50 cols/well
(§7) Subbed 50 μl of ≤5 clear wells

ATCC S. epid 14990 = experiment: as above; format: cell-based
Description: as §3, §6, §7

[2] = 10 strains, 5% lysed horse blood in MHB

10,10'-bis(3,6-dimethyl-5,10-dihydro-1,8-diazaanthracen-5-one) and 5,5'-bis(3,6-dimethyl-5,10-dihydro-1,8-diazaanthracen-10-one) [Example 15]
MICs with two weeks old dimer solution vs. original screen (Staphylococcus species): MICs appeared to be significantly higher | MIC50 (β strep grp A; [2]): 32 µg/mL | MIC90 (β strep grp A; [2]): 64 µg/mL | Range of MICs (β strep grp A; [2]): 32 to 64 mg/L | MIC (β strep grp A; ATCC STRA 19615, 5% lysed horse blood in MHB): 32 µg/mL | MIC50 (Strep pneumoniae; [2]): 8 µg/mL | MIC90 (Strep pneumoniae; [2]): 16 µg/mL | Range of MICs (Strep pneumoniae; [2]): 8 to 32 mg/L | MIC (Strep pneumoniae; ATCC STRPNE 49619, 5% lysed horse blood in MHB): 2.0 µg/mL | MIC50 ([1]; Table A): 0.125 µg/mL | MIC90 ([1]; Table A): 0.5 µg/mL | Range of MICs ([1]; Table A): .0625 to 1.0 mg/L | MIC50 ([1]; Table C, solution 14 days old): 1 µg/mL | MIC90 ([1]; Table C, solution 14 days old): 2 µg/mL | MIC ([1]; Table D, Staneg 1): 2 µg/mL | MIC ([1]; Table D, Staneg 2): 0.25 µg/mL | MIC ([1]; Table D, Staneg 3): 2 µg/mL | MIC ([1]; Table D, Staneg 4): > 16 µg/mL | MIC ([1]; Table D, Staneg 5): 1 µg/mL | MIC ([1]; Table D, Staneg 6): 1 µg/mL | MIC ([1]; Table D, Staneg 7): 1 µg/mL | MIC ([1]; Table D, Staneg 8): 1 µg/mL | MIC50 ([1]; Table E, fresh solution): 0.25 µg/mL | MIC90 ([1]; Table E, fresh solution): 0.5 µg/mL | Range of MICs ([1]; Table E, fresh solution, in µg/mL): 0.0625-4 | MIC ([1]; Table F, Staneg 1): 0.0625 µg/mL | MIC ([1]; Table F, Staneg 4): 4 µg/mL | MIC ([1]; Table F, Staneg 7): 0.25 µg/mL | MIC50 ([1]; Table G): 0.25 µg/mL | MIC90 ([1]; Table G): .5 µg/mL | Range of MICs ([1]; Table G): 0.0625 to 4 mg/L | MBC (S. aureus; Table D, S. aureus 1): 2 µg/mL | MBC (S. aureus; Table D, S. aureus 2): > 16 µg/mL | MBC (S. aureus; Table D, S. aureus 3): 16 µg/mL | MBC (S. aureus; Table D, S. aureus 4): 8 µg/mL | MBC (S. aureus; Table D, S. aureus 5): > 16 µg/mL | MBC (S. aureus; Table D, S. aureus 6, skipped wells): > 16 µg/mL | MBC (S. aureus; Table D, S. aureus 7): > 16 µg/mL | MBC (S. aureus; Table D, S. aureus 8, skipped wells): > 16 µg/mL | MBC (S. aureus; Table F, ATCC S. aureus 25923): 4 µg/mL | MBC (S. aureus; Table F, ATCC S. aureus 29213, skipped wells): > 16 µg/mL | MBC (S. aureus; Table F, Pip/Taz S. aureus 1): 8 µg/mL | MBC (S. aureus; Table F, Pip/Taz S. aureus 3): 4 µg/mL | MBC (S. aureus; Table F, Pip/Taz S. aureus 7): 2 µg/mL | MBC (S. aureus; Table F, S. aureus 1, skipped wells): 4 µg/mL | MBC (S. aureus; Table F, S. aureus 2): 1 µg/mL | MBC (S. aureus; Table F, S. aureus 8, skipped wells): ≥ 8 µg/mL | MBC (S. aureus; Table G footnote, ATCC 25923, methicillin susceptible): 4 µg/mL | MBC (S. aureus; Table G footnote, ATCC 29213, methicillin susceptible, skipped wells): 16 µg/mL | MBC (ATCC S. epid 14990; Table F, ATCC S. epid 14990): > 0.5 µg/mL | MBC (ATCC S. epid 14990; Table G footnote, ATCC 14990 (coag neg staph)): ≥ 0.5 µg/mL
